| Structure (SMILES) | melting point [°C] |
| --- | --- |
| COc1cc(OC)nc(Nc2cc(C)ccc2N)n1 | 128 to 129 |
| CCCCCNC(=O)C(C)Cc1ccc2c(c1)c(Cc1ccc(C(=O)OC)cc1OC)cn2C (stereo not drawn) | 128 to 130 |
| CCNC(=O)N1C(=O)Cc2cc(Cl)ccc21 | 121 to 122 |
| CCOC(=O)c1c(C)nc(Cl)c([N+](=O)[O-])c1Cl | 45 to 46 |
| CCCCN(Cc1ccc(-c2ccccc2-c2nnn[nH]2)cc1)c1ncncc1C(=O)OCOC(C)=O | 65 to 69 |
| CCOC(=O)c1cc(Br)cc2c(=O)cc(-c3cccc(OCc4ncc5ccccc5n4)c3)oc12 | 246 |
| O=C1c2ccncc2C(=O)c2c(Cl)ccc(F)c21 | 204 to 206 |
| NC(=O)c1cccc2c1CCCc1ccccc1-2 | > 250 |
| CCOC(=O)CCc1cc(C(=O)CCC(=O)O)ccc1OC | 128 to 129 |
| O=CC1=C(Cl)Nc2cc(Cl)c(F)cc2C1 | 260 |
| Clc1ccc(N=C2NCCN2)c(Cl)c1Cl | 161 |
| COc1ccc(-c2csc(Nc3ccccc3C(F)(F)F)n2)cc1OC | 188 |
| COC(=O)CSc1nc(SCc2c(Cl)cccc2Cl)ncc1[N+](=O)[O-] | 155 to 158 |
| O=C(Nc1ccccc1)c1c[nH]c2c1C(=O)CCC2 | 225 to 226 |
| Cc1cc(C2=NNC(C)Cc3cc4c(cc32)OCO4)ccc1[N+](=O)[O-] (stereo not drawn) | 144 to 147 |
| CC1(C)OC(=O)C(=[N+]=[N-])C(=O)O1 | 93 to 94 |
| Cc1nc(-n2cc(CNc3ccccc3)nn2)sc1C(=O)NCc1ccccc1 | 159 to 162 |
| Cc1ccc2[nH]c(NC(=O)c3ccccc3)nc(=O)c2c1 | 240 to 242 |
| COc1ccccc1Oc1ccccc1N | 68 to 70 |
| CN1CCc2c(O)c(F)cc3c(=O)c(C(=O)O)cn1c23 | > 290 |
| CN(C(=O)OC(C)(C)C)c1cc(Oc2ccc(Cc3ccccc3)cc2)ccc1N | 114 to 115 |
| Oc1ccc(C(c2ccc(O)cc2)c2ccccc2CN2CCN(c3ccccc3Cl)CC2)cc1 | 149 to 151 |
| COCCc1sc2ncnc(N)c2c1-c1ccc(NC(=O)Nc2cc(C(F)(F)F)ccc2F)cc1 | 209 to 211 |
| COc1cc(C(=O)O)ccc1Cc1cn(C)c2ccc(CC(C)C(=O)NCC3CCCC3)cc12 (stereo not drawn) | 103 to 109 |
| CCOC(=O)C(=O)Nc1nccc2snc(NC(=O)C(=O)OCC)c12 | 168 |

| Structure (SMILES) | melting point [°C] |
| --- | --- |
| Cc1cccc(CCOc2nc(N)c3ncn(C4OC(CO)C(O)C4O)c3n2)c1 (stereo not drawn) | 102 to 108 |
| N#CC(C#N)=C1C=C(c2ccccc2)S(=O)(=O)C(c2cccs2)=C1 | 214 to 232 |
| CCOC(=O)c1cc(C(=O)NC)nc(C(=O)NC)c1 | 183 to 184 |
| CCOC(=O)[C@H]1O[C@@H]1C(=O)N[C@H](CNC(=O)c1ccccc1)CC(C)C | 126 to 129 |
| CN(C)c1cc(-n2nc(N(C)C)n(C)c2=O)c(F)cc1C#N | 109 to 110 |
| Cc1ccc(CN(C(=S)Nc2ccccc2)C2CCCC2)cc1 | 109 to 111 |
| CCS(=O)(=O)c1ccc(S(=O)(=O)CC)nc1 | 148 to 150 |
| N#Cc1ccc(-c2cn(-c3ccc(C#N)cc3)cn2)cc1 | 258 to 263 |
| Cc1ccc2c(Cl)cc(S(=O)(=O)NCCc3ccc(N)cc3)c(O)c2n1 | 249 to 253 |
| COc1cccc(NC(=O)N2CCc3cc(S(=O)(=O)N4CCN(c5cccc(Cl)c5)CC4)ccc32)c1 | 199 to 200 |
| CS(=O)(=O)c1ccc(-n2nc(C(F)F)cc2-c2nc3cccc(F)c3s2)cc1 | 193 to 195 |
| CC(C)(CO)CNC(=O)c1ccc2c(c1)C(=NNc1ccc(S(N)(=O)=O)cc1)C(=O)N2 | > 230 |
| COc1ccc(C(=C/C=C/C(=O)NCCCCc2cccnc2)c2ccc(OC)c(OC)c2)cc1OC | 145 to 146 |
| COc1cc(C=O)cc2c(C)c(C)oc12 | 80 to 81 |
| c1ccc(COc2ccc(NC3=NN(c4ccccc4)CC3)cc2)cc1 | 187 to 188 |
| CC(=O)OS(=O)(=O)c1ccc(C)cc1 | 56 to 60 |
| CN1C[C@H]2c3ccccc3CC[C@H]2CCC1=O (relative stereo) | 130 to 131 |
| COCc1ncc(C(=O)O)s1 | 131 |
| CCOC(=O)C1(Cc2ccc(OC)c(OC)c2)C(=O)NCC1c1ccc(OC)c(OC)c1 (stereo not drawn) | 146 to 149 |
| CCCCN(CCCC)CCOc1ccc(C(=O)c2c(CC)cc3ccccn23)cc1 | 116 |
| O=S1(=O)NCN(C2CCCCCC2)c2cc(Cl)ccc21 | 149 to 151 |
| O=C(Nc1cc(Cl)cc(C(F)(F)F)c1)Oc1ccc([N+](=O)[O-])cc1 | 144 to 146 |
| COc1ccc(COc2cccnc2N)c(F)c1 | 135 to 138 |
| CCCOC(=O)Nc1cccc(NC(=O)C=C(C)OC)c1 | 115 |
| CC(C)c1cc(CC#N)c(C(C)C)cc1C#N | 88 to 89 |

| Structure (SMILES) | melting point [°C] |
| --- | --- |
| CC(c1ccc(-c2ccccc2)c(F)c1)c1csc(NS(C)(=O)=O)n1 (stereo not drawn) | 128 to 129 |
| CCOc1ccc(S(=O)(=O)Cl)cc1C(=O)OC | 99 to 100 |
| CC(=O)Nc1ccc(-n2c(N)nc3ccccc32)cc1 | 246 to 248 |
| COC(OC)C(=O)C=Cc1ccc(-c2cccs2)s1 | 74 |
| CCOC(=O)C1[C@@H]2[C@@H](O)[C@@H]3O[C@H](c4ccc(C(F)(F)F)cc4)OC[C@H]3O[C@H]12 (stereo partly drawn) | 128 to 131 |
| O=C1Nc2ccc(Cl)cc2Cc2sccc21 | 264 to 266 |
| CN1C(=O)N(CC(CS(=O)(=O)c2ccc(Oc3ccc(C(F)(F)F)cc3)cc2)N(O)C=O)C(=O)C1(C)C (stereo not drawn) | 141 to 143 |
| COc1cc2ncnc(Nc3cccc(C)c3)c2c(N)c1OC | 181 to 182 |
| CC(C)(C(=O)O)c1ccc(O[Si](C)(C)C(C)(C)C)cc1 | 78 to 80 |
| CCCCCCCCCCCCCCCCCCNC(=O)c1ccccc1N | 89 to 90 |
| CC(C)COc1c(-c2ccc(S(N)(=O)=O)cc2)cnn(-c2ccc(F)c(F)c2)c1=O | 169 to 171 |
| CCOC(=O)COC(=O)c1cc2c(cn1)[nH]c1ccccc12 | 165 to 168 |
| CNc1nc2ccc(Cc3ccccn3)cc2s1 | 118 to 121 |
| O=S(=O)(Cl)c1nc2nc(OCC(F)(F)F)ccn2n1 | 91 to 96 |
| CC(C)S(=O)(=O)N1C[C@@H](c2c[nH]c3ccccc23)[C@H](c2cn3c4c(cccc24)CCC3)C1 | 100 to 115 |
| CC(C)(C)C1=CC(=CC#N)C=C(C(C)(C)C)C1=O | 110 to 111 |
| COc1ccc(CC2CCC3=C(CCC(=O)N3)C2)cc1 (stereo not drawn) | 176 to 177 |
| Cc1ccccc1C(CCC(=O)O)Oc1cc(OCc2ccsc2)ccc1-c1ncco1 (racemic) | 112 to 114 |
| Cc1c(CNCC(C)(C)C)[nH]c2c(C)c(NC(=O)c3ccc(OC[C@@H]4CCCO4)cc3)ccc12 | 178 to 179 |
| COc1cc(CO)c(-c2ccc(OCCC(C)CCCC(C)C)cc2)cc1CO (stereo not drawn) | 101 |
| Cc1cccc(-c2nc3ccccn3c2-c2ccnc(-c3ccc(OC(F)(F)F)cc3)c2)n1 | 120 |
| O=C1C(O)N(c2ccc(Oc3ccccc3)cc2)C(=S)N1c1ccccc1 (stereo not drawn) | 160 |
| CCOC(=O)c1cnc(Cc2ccccc2)c(C)c1Cl | 233 to 245 |
